Measurements from patent publication US8324258B2, “F1F0-ATPase inhibitors and related methods” (The Regents of the University of Michigan, priority 2007, dated 2012).

Columns and labels:
Ramos cells = test: Cytotoxicity (cell death) in Ramos cells; type: cell-based
Procedure: (§1) The compounds listed in Table 9 were tested for activity against F1F0-ATPase by measuring ATP synthesis and ATP hydrolysis. In addition, the compounds were assessed for cytotoxicity in Ramos cells Inhibition of ATP synthesis and hydrolysis by the F1F0-ATPase and cytotoxicity in Ramos cells was measured as described in K. M. Johnson et al. Chemistry & Biology 2005, 12, 485-496.

F1F0-ATPase [1] = target: T1, F1F0-ATPase (Bos taurus, UniProt P13621); test: Inhibition of ATP synthesis by the F1F0-ATPase; type: biochemical; conditions: IC40: concentration for 40% inhibition
Procedure: as §1

F1F0-ATPase [2] = target: T1, F1F0-ATPase; test: Inhibition of ATP hydrolysis by the F1F0-ATPase; type: biochemical; conditions: IC40: concentration for 40% inhibition
Procedure: as §1

Row | Molecule | EC50 (Ramos cells; Homo sapiens, Ramos) [µM] | ATP Synthesis (IC40 μM) (F1F0-ATPase [1]) [µM] | ATP Hydrolysis (IC40 μM) (F1F0-ATPase [2]) [µM] | EC50 (Ramos cells; Ramos cells) [µM]
1 | C[C@@H](Cc1c[nH]cn1)N/C(=N/C(=O)c1cccc(Cl)c1)Nc1ccc(-c2ccccc2)cc1 [IV-5, (S,Z/E)-N-((1-(1H-imidazol-4-yl)propan-2-ylamino)(biphenyl-4-ylamino)methylene)-3-chlorobenzamide] | < 10 | <10 | <10 | 
2 | O=C(/N=C(/NCCc1nc[nH]n1)Nc1ccc(-c2ccccc2)cc1)c1cccc(Cl)c1 [IV-3, (Z/E)-N-((2-(1H-1,2,4-triazol-3-yl)ethylamino)(biphenyl-4-ylamino)methylene)-3-chlorobenzamide] | > 10 | <10 | <10 | 
3 | CN(C)S(=O)(=O)c1cccc(NC(=NC(=O)c2cccc(Cl)c2)NCCc2cnc[nH]2)c1 [III-40, (Z/E)-N-((2-(1H-imidazol-5-yl)ethylamino)(3-(N,N-dimethylsulfamoyl)phenylamino)methylene)-3-chlorobenzamide] |  | >20 | >30 | > 30
4 | O=C(N=C(NCCc1c[nH]cn1)Nc1cccc(Br)c1)c1cccc(Cl)c1 [III-3, (Z/E)-N-((2-(1H-imidazol-4-yl)ethylamino)(3-bromophenylamino)methylene)-3-chlorobenzamide] |  | <10 | >10 | > 10
5 | CCc1cccc(NC(=NC(=O)c2cccc(Cl)c2)NCCc2c[nH]cn2)c1 [III-42] |  | <10 | >20 | > 20
6 | O=C(/N=C(/NCCc1c[nH]cn1)Nc1cccc2cc[nH]c12)c1cccc(Cl)c1 [Compound V-4, (Z/E)-N-((2-(1H-imidazol-4-yl)ethylamino)(1H-indol-7-ylamino)methylene)-3-chlorobenzamide] | > 30 | >10 | >10 | 
7 | Cc1ccccc1NC(=NC(=O)c1cccc(Cl)c1)NCCc1c[nH]cn1 [III-8, (Z/E)-N-((2-(1H-imidazol-4-yl)ethylamino)(o-toluidino)methylene)-3-chlorobenzamide] |  | >10 | >30 | > 30
8 | O=C(N=C(NCCc1c[nH]cn1)Nc1ccccc1-c1ccccc1)c1ccccc1Cl [Compound I-1, (Z/E)-N-((2-(1H-imidazol-4-yl)ethylamino)(biphenyl-2-ylamino)methylene)-2-chlorobenzamide] |  | >20 | >30 | > 30
9 | N#Cc1cccc(C(=O)N=C(NCCc2c[nH]cn2)Nc2ccc(-c3ccccc3)cc2)c1 [II-6, (Z/E)-N-((2-(1H-imidazol-4-yl)ethylamino)(biphenyl-4-ylamino)methylene)-3-cyanobenzamide] |  | >20 | >30 | > 30
10 | C[C@H](Cc1c[nH]cn1)N/C(=N/C(=O)c1cccc(Cl)c1)Nc1ccc(-c2ccccc2)cc1 [IV-6, (R,Z/E)-N-((1-(1H-imidazol-4-yl)propan-2-ylamino)(biphenyl-4-ylamino)methylene)-3-chlorobenzamide] | < 10 | <10 | <10 | 
11 | (Z/E)-N-((2-(1H-imidazol-5-yl)ethylamino)(4-(methylsulfonyl)phenylamino)methylene)-3-chlorobenzamide [III-36] |  | >20 | >30 | > 30
12 | O=C(N=C(NCCc1c[nH]cn1)Nc1cccc(-c2ccccc2)c1)c1ccc([N+](=O)[O-])cc1 [VI-13, (Z/E)-N-((2-(1H-imidazol-4-yl)ethylamino)-(biphenyl-3-ylamino)methylene)-4-nitrobenzamide] |  | <10 | >30 | < 10
13 | CN(C)S(=O)(=O)c1ccc(NC(=NC(=O)c2cccc(Cl)c2)NCCc2cnc[nH]2)cc1 [III-39, (Z/E)-N-((2-(1H-imidazol-5-yl)ethylamino)(4-(N,N-dimethylsulfamoyl)phenylamino)methylene)-3-chlorobenzamide] |  | >20 | >30 | > 30
14 | N#Cc1cccc(-c2ccc(NC(=NC(=O)c3cccc(Cl)c3)NCCc3c[nH]cn3)cc2)c1 [III-45, (Z/E)-N-((2-(1H-imidazol-4-yl)ethylamino)(3′-cyanobiphenyl-4-ylamino)methylene)-3-chlorobenzamide] |  | <10 | >30 | < 10
15 | O=C(N=C(NCCc1c[nH]cn1)Nc1cccc(-c2ccccc2)c1)c1ccc(F)cc1 [VI-8, (Z/E)-N-((2-(1H-imidazol-4-yl)ethylamino)(biphenyl-3-ylamino)methylene)-4-fluorobenzamide] |  | <10 | >10 | > 10
16 | O=C(/N=C(/NCCc1c[nH]cn1)Nc1ccc2cc[nH]c2c1)c1cccc(Cl)c1 [Compound V-3, (Z/E)-N-((2-(1H-imidazol-4-yl)ethylamino)(1H-indol-6-ylamino)methylene)-3-chlorobenzamide] | > 20 | >10 | <10 | 
17 | N#Cc1cccc(C(=O)N=C(NCCc2c[nH]cn2)Nc2cccc(-c3ccccc3)c2)c1 [VI-5, (Z/E)-N-((2-(1H-imidazol-4-yl)ethylamino)(biphenyl-3-ylamino)methylene)-3-cyanobenzamide] |  | >10 | >30 | > 10
18 | O=C(/N=C(/NCCc1c[nH]cn1)Nc1ccc2[nH]ccc2c1)c1cccc(Cl)c1 [Compound V-2, (Z/E)-N-((2-(1H-imidazol-4-yl)ethylamino)(1H-indol-5-ylamino)methylene)-3-chlorobenzamide] | > 20 | >10 | >20 | 
19 | O=C(N=C(NCCc1c[nH]cn1)Nc1ccc2ccccc2c1)c1cccc(Cl)c1 [III-26, (Z/E)-N-((2-(1H-imidazol-4-yl)ethylamino)(naphthalen-2-ylamino)methylene)-3-chlorobenzamide] |  | >10 | >10 | > 10
20 | O=C(/N=C(\Nc1ccc(-c2ccccc2)cc1)Nc1ccc2[nH]ccc2c1)c1cccc(Cl)c1 [IV-8, (Z/E)-N-((1H-indol-5-ylamino)(biphenyl-4-ylamino)methylene)-3-chlorobenzamide] | < 10 | >10 | >30 | 
21 | Cc1cccc(C(=O)N=C(NCCc2c[nH]cn2)Nc2cccc(-c3ccccc3)c2)c1 [VI-2, (Z/E)-N-((2-(1H-imidazol-4-yl)ethylamino)(biphenyl-3-ylamino)methylene)-3-methylbenzamide] |  | <10 | >10 | > 10
22 | O=C(N=C(NCCc1c[nH]cn1)Nc1cccc(-c2ccccc2)c1)c1cccc(Cl)c1 [III-6, (Z/E)-N-((2-(1H-imidazol-4-yl)ethylamino)(biphenyl-3-ylamino)methylene)-3-chlorobenzamide] |  | <10 | >10 | < 10
23 | Cc1ccc(C(=O)N=C(NCCc2c[nH]cn2)Nc2cccc(-c3ccccc3)c2)cc1 [VI-1, (Z/E)-N-((2-(1H-imidazol-4-yl)ethylamino)(biphenyl-3-ylamino)methylene)-4-methylbenzamide] |  | <10 | >10 | > 10
24 | COc1ccc(NC(=NC(=O)c2cccc(Cl)c2)NCCc2c[nH]cn2)cc1 [III-13, (Z/E)-N-((2-(1H-imidazol-4-yl)ethylamino)(4-methoxyphenylamino)methylene)-3-chlorobenzamide] |  | >10 | >30 | > 30
25 | O=C(N=C(NCCc1c[nH]cn1)Nc1cccc(Cl)c1)c1cccc(Cl)c1 [III-18, (Z/E)-N-((2-(1H-imidazol-4-yl)ethylamino)(3-chlorophenylamino)methylene)-3-chlorobenzamide] |  | >10 | >20 | > 10
26 | O=C(N=C(NCCc1c[nH]cn1)Nc1ccc(-c2ccccc2)cc1)c1cccc(Br)c1 [II-10, (Z/E)-N-((2-(1H-imidazol-4-yl)ethylamino)(biphenyl-4-ylamino)methylene)-3-bromobenzamide] |  | >10 | >10 | < 10
